# Tested on: ADHD symptoms
# Assay: Treatment response to stimulant medication on the SWAN scale, by LPHN3-11q genotype
# Format: in vivo, human
# Conditions: 82 individuals, US1 sample
# Procedure: Eighty-two individuals with complete genotype and phenotype information were sampled from the original 240 trios in the US1 sample of Example 1. A comparative analyses regarding stimulant treatment was done as described in Arcos-Burgos et al., Mol. Psychiatry, 15(11): 1053-66 (2010). An analysis was performed to determine the relationship of SWAN scale (Strengths and Weaknesses of ADHD Symptoms and Normal Behavior scale) questions individually as well as inattentive and hyperactive combined dimensions (questions 1-9 indicate inattentive symptoms and questions 10-18 indicate hyperactive symptoms), prior to and after starting treatment with the stimulant methylphenidate.
structure (smiles),measurement,setting,value
COC(=O)C(c1ccccc1)C1CCCCN1 (centres unmarked) [methylphenidate],response to stimulant medication treatment (SWAN scale),individuals having AA at rs6551665 and fewer than two copies of the susceptibility haplotype on 11q,poor response
same,"change of symptoms after treatment with stimulant medication (SWAN scale question 18, hyperactive-impulsive dimension)",individuals having GG at rs6551665 and two copies of the susceptibility haplotype on 11q,significant improvement of symptoms
